Results from US11179395B2, “Treating melanoma with mebendazole and a mitogen-activated kinase inhibitor” (GEORGETOWN UNIVERSITY, priority 2017, dated 2021).
Read-outs that look alike come from different tables or passages of the source. Blank lines part the entries; values can stand above or below the compound they belong to.

What was measured:
[1] = Pharmacokinetic studies of MBZ formulations; assay type: in vivo, athymic mice; conditions: for mean plasma exposure at 8 hours / concentration at 8 h: MBZ 40 mg/kg oral gavage; for concentration at 8 h: athymic, mouse, plasma, oral, 40 mg/kg, read-out: mean plasma exposure at 8 hours
Method: In pharmacokinetic (PK) studies, MBZ was administered to athymic mice (described below) by oral gavage at a dose of 40 mg/kg in three different formulations (methylcellulose, oleic acid, or sesame oil/PBS) or methylcellulose in combination with cimetidine. MBZ and two metabolites, 2-Amino-5-benzoyl-1H bezimidizole (2ABB), and rac Dihydro MBZ (RDM), were quantified in mouse plasma as described in Bai et al., “Brain Penetration and Efficacy of Different Mebendazole Polymorphs in a Mouse Brain Tumor Model,” Clin. Cancer Res. 21:3462-3470 (2015)).

[2] = Pharmacokinetic studies of MBZ formulations; assay type: in vivo, athymic mice; conditions: MBZ 40 mg/kg oral gavage; for lower exposure with trametinib co-administration vs. methylcellulose: 8 hours
[3] = test system: patient-derived metastatic melanoma cells harboring a BRAFWT/NRASQ61K mutation profile; assay: Treatment of patient-derived metastatic melanoma cells (FIG. 7); assay type: cell-based, Human
Excerpt: In additional studies, patient-derived cells harboring a BRAFWT/NRASQ61K mutation profile were separated into CD133+ populations and CD133− populations.

[4] = test system: MEK1/2 and ERK1/2 phosphorylation; assay: Immunoblot analysis of xenograft tumor extracts; assay type: in vivo, athymic mice; conditions: tumors collected at termination of experiment; combination is HDT+MBZ
Method: Athymic mice were injected with 3×10^6 BAK melanoma cells, and tumors were allowed to grow to a volume of 100 mm^3. […] Time 0 is the tumor volume on the first day of treatment; tumor sizes were normalized to their size at time 0 of drug treatment. B) Mice were weighed every other day and body weights (g) plotted over time. Data from four experiments were combined for statistical analysis, to compare every mouse from each treatment group. The total mice for all experiments included vehicle control (n=13), LDT (n=12), MBZ (n=12), HDT (n=12), LDT+MBZ (n=12), and HDT+MBZ (n=15). The results are shown as the mean (+SD) of tumor volume in each group. C) and D) ERK and MEK phosphorylation was suppressed in large (C) or small (D) tumor xenografts from mice treated with T+MBZ. Tumor extracts were derived from xenografts, then subjected to immunoblot analysis using antibodies specific for total BRAT, phospho-BRAF, ERK1/2, phospho-ERK1/2, total MEK1/2, phospho-MEK1/2, or GAPDH as a loading control. SDS-PAGE and transfer of separated proteins to nitrocellulose membranes were performed according to standard procedures. […] Immune complexes were detected by incubation with appropriate horseradish peroxidase-conjugated antibodies to mouse or rabbit IgG (1:3000) and enhanced chemiluminescence (Pierce, Rockford, Ill.).

[5] = test system: BAK (BRAFWT/NRASQ61K) melanoma cells; assay: XTT cell viability assay; assay type: cell-based; conditions: Homo sapiens; cultured NRAS cells, FIG. 2A; read-out: IC80 (equivalent to patient mean peak plasma concentration)
Method: MBZ, dabrafenib, and trametinib were purchased from Sigma-Aldrich (St. Louis, Mo.) and ActiveBiochem (Maplewood, N.J.), respectively. […] Cell viability was assessed by an XTT assay, according to a manufacturer's specifications (Biotium Inc (Fremont, Calif.)). Reduced XTT was measured by absorbance at 490 nm on a PerkinElmer Victor 3 (Duluth, Ga.) plate reader. […]
The results shown are based on a single experiment in triplicate, and repeated in three independent experiments with essentially the same results. […] For determining synergism, the combination index (τ) was calculated from single dose-response curves and combination experiments as τ=xA/XA+xB/XB, in which, for a given cytotoxic effect, xA and xB are the concentrations of drugs A and B in the combination, and XA and XB are the concentrations of drugs A and B that achieve the same cytotoxic effect when given alone. […]

[6] = test system: BAK, BUL and STU melanoma cells; assay: XTT cell viability assay, all three melanoma cell lines; assay type: cell-based, Human; conditions: 72 h
Method: FIGS. 2A-2C show decreased viability of melanoma cells exposed to MBZ, dabrafenib (D), trametinib (T), or combinations of T+D or MBZ+trametinib. A) BAK (BRAFWT/NRASQ61K); B) BUL (BRAFWT/NRASQ61K); and C.) STU (BRAFV600K/NRASWT) melanoma cells were exposed to the indicated concentrations of MBZ, D, T, T+D or MBZ+trametinib (T+MBZ) for 72 h, and subjected to XTT cell viability assays, as described in the Examples. Error bars represent mean±SD for triplicates. […] The results shown are based on a single experiment in triplicate; and repeated in three independent experiments with essentially the same results.
MBZ, dabrafenib, and trametinib were purchased from Sigma-Aldrich (St. Louis, Mo.) and ActiveBiochem (Maplewood, N.J.), respectively. 5×10^3 viable cells per well were plated in 96-well dishes and allowed to recover for 12 h prior to drug treatment. Cells in triplicate wells were treated for up to 72 h (based on initial time course experiments showing maximal effects at that time point) with different concentrations of trametinib, dabrafenib, or MBZ alone, or a combination of MBZ and trametinib. Negative controls were exposed to vehicle DMSO in the same volumes. Cell viability was assessed by an XTT assay, according to a manufacturer's specifications (Biotium Inc (Fremont, Calif.)). Reduced XTT was measured by absorbance at 490 nm on a PerkinElmer Victor 3 (Duluth, Ga.) plate reader. Cells exposed to detergent served as a positive control.

[7] = test system: MEK/ERK pathway in BAK NRASQ61K melanoma cells; assay: Reverse-phase protein array (RPPA); assay type: cell-based, Human; conditions: 10 nM or 100 nM; 1, 8 or 24 h
Method: Cell lysates were analyzed by reverse-phase protein array (RPPA). Samples were diluted to 0.5 mg/mL and dilutions printed on slides in triplicate. Slides were immunostained with 137 different antibodies specific for total proteins, or phosphorylated or cleaved products. […] Intensity values were normalized to that of total protein for each sample stained with Sypro Ruby (Invitrogen Carlsbad, Calif.)). Unsupervised cluster analysis http://www.hiv.1an1.ov/content/sequence/HEATMAP/heatmap.html was performed for all proteins in the RPPA using the standard bootstrap method.
Given the potential changes in tumor cell signaling and survival over the long time course of the xenografts, potential mechanisms by which MBZ+trametinib exerts its cytotoxic effects were examined using cultured BAK NRASQ61K melanoma cells. Cells were exposed to MBZ (10 nM or 100 nM), trametinib (10 nM or 100 nM), or a combination of the two for 1, 8, or 24 h, after which cell extracts were subjected to reverse-phase protein array (RPPA) analysis.

[8] = test system: BAK (BRAFWT/NRASQ61K) melanoma xenografts; assay: Mouse xenografting, tumor growth; assay type: in vivo, athymic mice; conditions: oral gavage; MBZ 40 mg/kg/qad, trametinib 0.1 or 3 mg/kg/qd
Method: Athymic mice were injected with 3×10^6 BAK melanoma cells, and tumors were allowed to grow to a volume of 100 mm^3. Animals were then gavaged with vehicle emulsion control, 40 mg/kg/qad (every other day) MBZ, low dose trametinib (LDT; 0.1 mg/kg/qd (once a day)), high dose trametinib (HDT; 3 mg/kg/qd) or a combination of MBZ and LDT or HDT, A) Tumor widths and lengths were measured and volumes calculated as w2×l/2, where width is defined as the smaller of the tumor dimensions. Time 0 is the tumor volume on the first day of treatment; tumor sizes were normalized to their size at time 0 of drug treatment. B) Mice were weighed every other day and body weights (g) plotted over time. […]
Athymic 6-week old male mice (Taconic (Hudson, N.Y.)) were acclimated to the Division of Comparative Medicine at Georgetown University a week prior to xenografting. […] Tumor growth was measured with calipers, and drug treatment started when tumor volumes reached 100 mm^3, after which mice were monitored daily for drug efficacy, as well for adverse effects, including weight and behavior. […] Each tumor from each treatment group was measured on indicated days, and all tumor sizes were then normalized to their size at day 0 of drug treatment. […] The results were expressed as the mean (±SD) of tumor volume in each group.

VEGFR2 = VEGFR2 (Homo sapiens, UniProt P35968); assay: MBZ potency towards VEGFR2 compared with BRAF (FIG. 1C); assay type: biochemical
Sequence of VEGFR2 (P35968 20-1356): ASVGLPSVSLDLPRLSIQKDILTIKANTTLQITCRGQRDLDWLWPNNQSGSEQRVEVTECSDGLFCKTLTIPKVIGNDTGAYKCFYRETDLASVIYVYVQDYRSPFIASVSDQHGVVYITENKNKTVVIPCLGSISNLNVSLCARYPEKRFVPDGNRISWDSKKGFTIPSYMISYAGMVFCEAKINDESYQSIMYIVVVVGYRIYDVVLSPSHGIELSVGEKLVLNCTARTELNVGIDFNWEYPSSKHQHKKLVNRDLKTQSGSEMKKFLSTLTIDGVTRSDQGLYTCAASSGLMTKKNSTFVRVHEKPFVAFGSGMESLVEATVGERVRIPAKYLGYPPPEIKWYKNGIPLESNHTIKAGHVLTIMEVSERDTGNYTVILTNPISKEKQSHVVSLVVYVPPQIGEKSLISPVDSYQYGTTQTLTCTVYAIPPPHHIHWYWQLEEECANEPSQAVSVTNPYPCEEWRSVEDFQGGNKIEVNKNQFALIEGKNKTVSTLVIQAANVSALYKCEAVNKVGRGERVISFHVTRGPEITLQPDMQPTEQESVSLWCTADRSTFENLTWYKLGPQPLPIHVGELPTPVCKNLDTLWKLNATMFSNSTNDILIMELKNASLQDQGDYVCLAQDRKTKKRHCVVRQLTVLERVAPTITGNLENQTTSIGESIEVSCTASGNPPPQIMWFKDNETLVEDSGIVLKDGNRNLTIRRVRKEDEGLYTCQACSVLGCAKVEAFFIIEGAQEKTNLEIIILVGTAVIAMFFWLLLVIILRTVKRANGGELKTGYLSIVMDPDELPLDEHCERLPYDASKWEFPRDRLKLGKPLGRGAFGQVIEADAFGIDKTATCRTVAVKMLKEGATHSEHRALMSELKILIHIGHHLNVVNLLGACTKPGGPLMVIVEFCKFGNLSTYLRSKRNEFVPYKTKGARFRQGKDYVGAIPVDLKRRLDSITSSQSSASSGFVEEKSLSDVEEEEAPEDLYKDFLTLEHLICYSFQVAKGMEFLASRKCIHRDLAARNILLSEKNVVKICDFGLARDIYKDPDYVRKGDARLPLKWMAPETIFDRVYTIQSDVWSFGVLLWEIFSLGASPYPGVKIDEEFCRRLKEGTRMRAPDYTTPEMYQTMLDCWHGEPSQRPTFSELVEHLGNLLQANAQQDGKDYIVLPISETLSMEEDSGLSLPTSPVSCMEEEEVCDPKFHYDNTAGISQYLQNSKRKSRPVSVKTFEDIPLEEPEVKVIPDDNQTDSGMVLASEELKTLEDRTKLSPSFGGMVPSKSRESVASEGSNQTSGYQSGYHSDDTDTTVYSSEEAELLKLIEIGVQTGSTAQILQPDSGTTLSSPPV

BRAFWT = BRAFWT (Homo sapiens, UniProt P15056); assay: In-vitro binding affinity of MBZ (FIG. 1C)
Sequence of BRAFWT (P15056 whole entry): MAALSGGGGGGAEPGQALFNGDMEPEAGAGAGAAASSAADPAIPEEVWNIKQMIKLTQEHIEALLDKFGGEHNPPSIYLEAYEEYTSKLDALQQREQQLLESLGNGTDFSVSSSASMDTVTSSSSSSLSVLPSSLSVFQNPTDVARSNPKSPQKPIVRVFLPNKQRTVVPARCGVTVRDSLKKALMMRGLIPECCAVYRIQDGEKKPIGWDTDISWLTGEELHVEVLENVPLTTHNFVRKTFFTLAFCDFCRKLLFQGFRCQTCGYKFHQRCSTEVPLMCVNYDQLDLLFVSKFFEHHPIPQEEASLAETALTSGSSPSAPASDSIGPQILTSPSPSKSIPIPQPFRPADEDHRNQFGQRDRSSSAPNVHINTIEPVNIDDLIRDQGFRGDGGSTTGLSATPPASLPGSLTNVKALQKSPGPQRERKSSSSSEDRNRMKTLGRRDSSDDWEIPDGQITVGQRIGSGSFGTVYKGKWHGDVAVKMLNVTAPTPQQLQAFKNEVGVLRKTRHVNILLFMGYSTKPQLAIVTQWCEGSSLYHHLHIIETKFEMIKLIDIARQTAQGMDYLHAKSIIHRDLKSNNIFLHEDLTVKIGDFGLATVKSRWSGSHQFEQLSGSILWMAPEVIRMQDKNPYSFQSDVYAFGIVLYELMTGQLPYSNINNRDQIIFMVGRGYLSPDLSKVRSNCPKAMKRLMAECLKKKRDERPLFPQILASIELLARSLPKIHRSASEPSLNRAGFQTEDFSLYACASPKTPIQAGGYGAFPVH
Excerpt: (§1) Efforts to develop drugs targeting mutant BRAF led to FDA approval of vemurafenib in 2011 and dabrafenib in 2013. […] In addition, other MAPK pathway proteins including CRAF and MEK were identified.

BRAFV600E = BRAFV600E (Homo sapiens, UniProt P15056, V600E); assay: In-vitro binding affinity of MBZ (FIG. 1C)
Sequence of BRAFV600E (P15056 whole entry V600E): as the sequence (P15056 whole entry) above, with V600E counted along it
Excerpt: as §1

BRAF = assay: In-vitro kinase assay; assay type: biochemical
Excerpt: as §1

MEK = assay: In-vitro kinase assay; assay type: biochemical
Excerpt: as §1

[9] = test system: MEK/ERK pathway in BAK cells; assay: Immunoblot analysis of cultured cells; assay type: cell-based, Human; conditions: 100 nM; for pMEK1/2 S217/221 phosphorylation: combination within 30 min
Excerpt: FIGS. 5A-H are RPPA (A) and immunoblot (B-E) analyses that reveal suppression of the MAPK pathway, including ERK and its downstream substrates in melanoma cells exposed to MBZ+trametinib. A. […] Cell extracts derived at indicated times were subjected to RPPA analysis, and unsupervised hierarchal clustering was used to generate a heat map as described in Materials and Methods. […] F)-H) Immunoblot experiments were repeated with an additional melanoma cell line BUL, which harbors the same NRASQ61K mutation. […] All immunoblots were then reprobed with GAPDH as loading control. SDS-PAGE and transfer of separated proteins to nitrocellulose membranes were performed according to standard procedures. Membranes were stained with Ponceau S (0.1%) to verify equal loading and transfer of proteins, and then incubated with antibodies specific for pERK1/2 T202/Y204, pMEK1/2 S217/221, pBAD S-112, total BAD, total ERK1/2, total MEK1/2, BCL2 (Santa Cruz Biotech), BCLXL (Santa Cruz Biotech (Santa Cruz, Calif.)), cleaved PARP (Cell Signaling (Danvers, Mass.)), or GAPDH (Abeam (Cambridge, UK); loading control). Immune complexes were detected by incubation with appropriate horseradish peroxidase-conjugated antibodies to mouse or rabbit IgG (1:3000) and enhanced chemiluminescence (Pierce, Rockford, Ill.).

CRAF = CRAF (Homo sapiens, UniProt P04049); assay: Affinity of MBZ for CRAF; assay type: binding
Sequence of CRAF (P04049 whole entry, canonical isoform): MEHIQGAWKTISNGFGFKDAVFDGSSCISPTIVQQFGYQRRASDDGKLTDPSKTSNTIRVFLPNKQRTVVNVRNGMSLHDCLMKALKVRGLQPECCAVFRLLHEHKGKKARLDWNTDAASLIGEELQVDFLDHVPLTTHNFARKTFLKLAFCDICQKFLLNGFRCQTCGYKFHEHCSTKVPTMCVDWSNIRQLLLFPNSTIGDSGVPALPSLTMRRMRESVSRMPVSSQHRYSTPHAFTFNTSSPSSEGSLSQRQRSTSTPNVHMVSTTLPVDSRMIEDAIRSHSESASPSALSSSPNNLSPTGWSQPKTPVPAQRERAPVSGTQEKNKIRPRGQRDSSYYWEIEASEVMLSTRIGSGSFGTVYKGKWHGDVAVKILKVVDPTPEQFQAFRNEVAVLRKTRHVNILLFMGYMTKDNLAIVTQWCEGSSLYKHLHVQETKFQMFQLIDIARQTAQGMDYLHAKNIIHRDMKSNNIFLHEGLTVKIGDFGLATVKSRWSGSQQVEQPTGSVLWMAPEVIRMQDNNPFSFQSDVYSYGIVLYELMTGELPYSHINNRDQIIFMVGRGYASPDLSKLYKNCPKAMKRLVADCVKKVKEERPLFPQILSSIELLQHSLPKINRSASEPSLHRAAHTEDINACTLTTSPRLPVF
Excerpt: MBZ interacts with VEGFR in silico and MBZ interacts with additional kinases in vitro, including BCR-ABL and BRAF. TMFS was used to show the nature of the interactions between MBZ, and VEGFR, and with BRAFWT or BRAFV600E. […] In fact these inhibitors actually enhance growth of NRASmut/BRAFWT tumors by paradoxically further activating the MAPK pathway through induced conformational changes in wild type RAF isoforms, inducing dimerization, membrane localization, and activation by RAS.

[10] = 10 mg/kg/day, chronic MBZ; cited from earlier work

mean plasma exposure at 8 hours ([1]; methylcellulose formulation): 57 ng/mL | mean plasma exposure at 8 hours ([1]; oleic acid formulation): 543 ng/mL | lower exposure with trametinib co-administration vs. methylcellulose [2]: did not alter
SMILES: COC(=O)Nc1nc2ccc(C(O)c3ccccc3)cc2[nH]1 (racemic) [RDM, rac Dihydro MBZ]

concentration at 8 h ([1]; methylcellulose formulation): 473 ng/mL | concentration at 8 h ([1]; oleic acid formulation): 1390 ng/mL | difference in exposure between formulations or combinations ([1]; one hour, P>0.05 Kruskal-Wallis): no difference | potency towards BRAF versus VEGFR2 (VEGFR2): more potency towards BRAF | Kd (BRAFWT): 230 nM | Kd (BRAFV600E): 210 nM | inhibition of kinase activity by MBZ (BRAF): nM range | inhibition of kinase activity by MBZ (MEK): nM range | lower exposure with trametinib co-administration vs. methylcellulose [2]: did not alter | affinity for CRAF (CRAF): very low affinity
SMILES: COC(=O)Nc1nc2ccc(C(=O)c3ccccc3)cc2[nH]1 [MBZ, methyl N-[6-(benzoyl)-1H-benzimidazol-2-yl] carbamate]
sensitivity to treatment [3]: sensitivity | MEK1/2 and ERK1/2 phosphorylation in tumors [4]: suppress MEK and ERK phosphorylation | IC80 [5]: ~470 nM | cytotoxicity as single agent [6]: weak cytotoxic activity | concentration at which significant growth inhibition was observed ([6]; 2-way ANOVA): ≥ 10 nM | phosphorylation of proteins associated with the MEK/ERK pathway [7]: down-regulated | tumor growth [8]: did not work as a monotherapy | ERK1/2 (T202/Y204) phosphorylation ([9]; combination undetectable by 30 min): diminished | pMEK1/2 S217/221 phosphorylation [9]: not inhibited | mean peak plasma level [10]: 470 nM | peak plasma level, variability between patients [10]: 0.34 to 1.69 µM

The next lines start with the compound.

SMILES: Nc1nc2cc(C(=O)c3ccccc3)ccc2[nH]1 [2ABB, 2-Amino-5-benzoyl-1H bezimidizole]
mean plasma exposure at 8 hours ([1]; methylcellulose formulation): 425 ng/mL | mean plasma exposure at 8 hours ([1]; oleic acid formulation): 427 ng/mL | lower exposure with trametinib co-administration vs. methylcellulose [2]: ~45% | mean plasma exposure at 8 hours ([2]; trametinib co-administration): 242 ng/mL

SMILES: CC(C)(C)c1nc(-c2cccc(NS(=O)(=O)c3c(F)cccc3F)c2F)c(-c2ccnc(N)n2)s1 [dabrafenib]
cytotoxicity as single agent [6]: resistance

SMILES: CC(=O)Nc1cccc(-n2c(=O)n(C3CC3)c(=O)c3c(Nc4ccc(I)cc4F)n(C)c(=O)c(C)c32)c1 [trametinib]
pMEK1/2 S217/221 phosphorylation [9]: not inhibited
